# Results taken from US20160022760A1, “METHODS OF TREATING CELIAC DISEASE WITH LARAZOTIDE” (priority 2014, published 2016).
# Where no end group is shown, it is not given here.
# Assays:
# [1] = test system: anti-deamidated gliadin peptide (anti-DGP IgA and IgG); details: MITT
# Source text: (§1) Blood was collected for determination of serum anti-tTG (IgA and IgG) and anti-DGP (IgA and IgG) at the timings specified in Table 2.
# (§2) Anti-tTG (IgA and IgG) and anti-DGP (IgA and IgG), and change from baseline (Week 0) to Visit 4 (Week 4), End of Treatment Visit 6 (Week 12), and End of Study Visit 7 (Week 16) were summarized descriptively. Week 0 served as baseline.
# [2] = test system: anti-tissue transglutaminase (anti-tTG IgA and IgG); details: each treatment group, MITT
# Source text: as §1, §2
# [3] = Phase IIb study: vital signs, BMI and body weight; assay type: in vivo, human
# Method: Body weight was measured and BMI was calculated based upon screening height and weight at the timings specified in Table 2.
# The Investigator or designee obtained vital signs including temperature, blood pressure (sitting), and pulse at screening and all study visits.
# For continuous variables, changes from baseline to each time point were summarized with the number of nonmissing values, mean, standard deviation, median, and minimum and maximum values. For categorical variables, subject counts and percentages were provided. Results of ECGs were classified as normal; abnormal, not clinically significant, and abnormal, clinically significant, as specified on the ECG page of the eCRF. Summaries were presented by treatment group.
# [4] = test system: celiac disease; details: cited from earlier work
sequence,measurement,setting,value
GGVLVQPG (SEQ ID NO:1) [Larazotide acetate],"Anti-DGP (IgA and IgG) antibody titers versus placebo, in words",[1]; any Larazotide acetate group,no clinically meaningful post baseline differences
same,"Average anti-DGP antibody titers (IgA) over the study, in words",[1]; each treatment group,remained relatively unchanged
same,"Average anti-tTG antibody titers (IgA) over the study, in words",[2],remained relatively unchanged
same,Average anti-tTG antibody titers (IgA),[2]; throughout the study,< 10 units
same,Mean change from baseline in BMI (range),"[3]; 0.5, 1 and 2 mg groups, Week 4, Week 8, end of treatment, end of follow-up, placebo −0.1 to −0.3",0 to 0.2 kg/m^2
same,Mean change from baseline in body weight (range),"[3]; 0.5, 1 and 2 mg groups, placebo −0.2 to −0.8",-0.1 to 0.5 kg
same,"Mean changes from baseline in vital sign variables versus placebo, in words","[3]; systolic and diastolic blood pressure, pulse rate, body temperature",No clinically meaningful differences
same,"Safety profile in previous clinical studies, in words",[4]; 0.25 mg to 8 mg TID and up to 36 mg in a single dose,acceptable safety profile
same,"Efficacy of lower doses in previous studies, in words",[4]; lower doses 0.25 mg and 1 mg versus 4 mg or 8 mg,more effective compared to placebo than higher doses of 4 mg or 8 mg
